One experiment has as its system A549. Kind of experiment: Cytotoxicity against human A549 cells by sulforhodamine B assay. The experiment is classed as functional, cell-based.
In experiment [1] the test system is KB. Kind of experiment: Cytotoxicity against multi-drug resistant variant vincristine resistant human KB cells expressing P-glycoprotein by sulforhodamine B assay. Type of experiment: functional, cell-based. On the technique in general: In SRB staining, fixed cells bind dye roughly in proportion to their protein.
In experiment [2] the test system is KB. Kind of experiment: Selectivity ratio of EC50 for human KB cells to EC50 for multi-drug resistant variant vincristine resistant human KB cells expressing P-glycoprotein by sulforhodamine B assay. Type of experiment: functional.
Experiment [3] concerns KB. Kind of experiment: Cytotoxicity against human KB cells by sulforhodamine B assay. The experiment is classed as functional, cell-based.
Another experiment concerns DU-145. Kind of experiment: Cytotoxicity against human DU145 cells by sulforhodamine B assay. Type of experiment: functional, cell-based.

A word on the EC50: it is the concentration giving half of the maximal effect.

On to `CCN1C[C@]2(C)CC[C@H](OC)[C@@]34[C@@H]5C[C@H]6[C@H](OC)[C@@H]5[C@@]5(C[C@@H]6OC)OCO[C@@]5([C@@H](OC(=O)c5ccc(F)c(C)c5)[C@H]23)[C@@H]14`, for which the EC50 in the experiment with A549 is above 20 µM; with KB [1] it was 4.71 µM; in the experiment on KB [3], 12.1 µM; in the experiment with DU-145, 19.8 µM. Further, the “Ratio EC50” value in the experiment with KB [2] came to 2.57.
Take `CCN1C[C@]2(C)CC[C@H](OC)[C@@]34[C@@H]5C[C@H]6[C@H](O)[C@@H]5[C@@]5(C[C@@H]6OC)OCO[C@@]5(C(=O)[C@H]23)[C@@H]14` [YUNNADELPHININE]: the EC50 in the experiment with A549, with KB [1], with KB [3] and in the experiment with DU-145 was above 20 µM each time.
Take `CCOc1ccc(C(=O)O[C@H]2[C@@H]3[C@@]4(C)CC[C@H](OC)[C@]35C(N(CC)C4)[C@@]23OCO[C@@]32C[C@H](OC)[C@H]3C[C@@H]5[C@@H]2[C@H]3OC)cc1` (single isomer, unassigned): the EC50 in the experiment on A549 amounted to 20 µM; in the experiment on KB [1] it was 6.5 µM; in the experiment on KB [3], 14.8 µM; in the experiment with DU-145, 15.6 µM. Moreover, the “Ratio EC50” value with KB [2] is recorded as 2.28.
For the compound `CCN1C[C@]2(C)CC[C@H](OC)[C@@]34C1[C@@]1(OCO[C@@]15C[C@H](OC)[C@H]1C[C@@H]3[C@@H]5[C@H]1OC)[C@@H](OC(=O)c1ccc(SC(F)(F)F)cc1)[C@H]24` (single isomer, unassigned), the EC50 in the experiment on A549 was above 20 µM; in the experiment on KB [1] it was 17.9 µM; with KB [3] it was above 20 µM; in the experiment with DU-145, 16.6 µM.
Consider `CCN1C[C@]2(C)CC[C@H](OC)[C@@]34C1[C@@]1(OCO[C@@]15C[C@H](OC)[C@H]1C[C@@H]3[C@@H]5[C@H]1OC)[C@@H](OC(=O)c1ccc(-c3ccccc3)cc1)[C@H]24` (single isomer, unassigned), for which the EC50 in the experiment with A549 is above 20 µM; in the experiment on KB [1] it was 17.4 µM; in the experiment on KB [3], above 20 µM; with DU-145 it was 17.1 µM.
As to `CCN1C[C@]2(C)CC[C@H](OC)[C@@]34C1[C@@]1(OCO[C@@]15C[C@H](OC)[C@H]1C[C@@H]3[C@@H]5[C@H]1OC)[C@@H](OC(=O)c1cc(OC)c(OC)c(OC)c1)[C@H]24` (single isomer, unassigned), the EC50 with A549, in the experiment with KB [1], with KB [3] and with DU-145 was above 20 µM in each case.
Regarding `CCN1C[C@]2(C)CC[C@H](OC)[C@@]34[C@@H]5C[C@H]6[C@H](OC)[C@@H]5[C@@]5(C[C@@H]6OC)OCO[C@@]5([C@@H](OC(=O)/C=C/c5ccc(F)cc5)[C@H]23)[C@@H]14`, the EC50 in the experiment on A549, with KB [1], with KB [3] and in the experiment on DU-145 was above 20 µM each time.
As for `CCN1C[C@]2(C)CC[C@H](OC)[C@@]34C1[C@@]1(OCO[C@@]15C[C@H](OC)[C@H]1C[C@@H]3[C@@H]5[C@H]1OC)[C@@H](OC(=O)c1cc(F)c(F)c(F)c1)[C@H]24` (single isomer, unassigned), the EC50 in the experiment with A549 is 19.9 µM; with KB [1] it was 6.8 µM; in the experiment with KB [3] it was 14.6 µM; in the experiment with DU-145, 16.9 µM. Besides, the “Ratio EC50” value with KB [2] is 2.15.
On to `CCN1C[C@]2(C)CC[C@H](OC)[C@@]34[C@@H]5C[C@H]6[C@H](OC)[C@@H]5[C@@]5(C[C@@H]6OC)OCO[C@@]5([C@@H](OC(=O)c5ccc(C(F)(F)F)c(F)c5)[C@H]23)[C@@H]14`, for which the EC50 in the experiment with A549 stood at 16.5 µM; in the experiment on KB [1], 4.4 µM; in the experiment on KB [3], 5.44 µM; in the experiment with DU-145, 11.3 µM. The “Ratio EC50” value in the experiment on KB [2] is recorded as 1.24.
Regarding `CC(=O)O[C@H]1C(=O)[C@@]2(C)[C@H]([C@H](OC(=O)c3ccccc3)[C@]3(O)C[C@H](OC(=O)[C@H](O)[C@@H](NC(=O)c4ccccc4)c4ccccc4)C(C)=C1C3(C)C)[C@]1(OC(C)=O)CO[C@@H]1C[C@@H]2O` [PACLITAXEL], the concentration giving a half-maximal response (EC50) stood at 0.0064 µM with A549, 0.76 µM with KB [1], 0.006 µM in the experiment on KB [3] and 0.0059 µM in the experiment on DU-145.
With `CCN1C[C@]2(C)CC[C@H](OC)[C@@]34C1[C@@]1(OCO[C@@]15C[C@H](OC)[C@H]1C[C@@H]3[C@@H]5[C@H]1OC)[C@@H](OC(=O)c1ccc(OC)cc1)[C@H]24` (single isomer, unassigned), the EC50 in the experiment with A549, in the experiment on KB [1], in the experiment with KB [3] and in the experiment on DU-145 was above 20 µM each time.
For the compound `CCN1C[C@]2(C)CC[C@H](OC)[C@@]34C1[C@@]1(OCO[C@@]15C[C@H](OC)[C@H]1C[C@@H]3[C@@H]5[C@H]1OC)[C@@H](OC(=O)c1cc([N+](=O)[O-])cc([N+](=O)[O-])c1)[C@H]24` (single isomer, unassigned), the EC50 in the experiment with A549 was above 20 µM; in the experiment with KB [1], 20.3 µM; in the experiment with KB [3], 19.1 µM; with DU-145, above 20 µM.
Consider `CCN1C[C@]2(C)CC[C@H](OC)[C@@]34C1[C@@]1(OCO[C@@]15C[C@H](OC)[C@H]1C[C@@H]3[C@@H]5[C@H]1OC)[C@@H](OC(=O)c1ccc(OC(F)(F)F)cc1)[C@H]24` (single isomer, unassigned), for which the EC50 with A549 was found to be 18.7 µM; in the experiment on KB [1], 18.9 µM; with KB [3], 20.1 µM; in the experiment with DU-145, 20.3 µM.
The matching figures for `CCN1C[C@]2(C)CC[C@H](OC)[C@@]34[C@@H]5C[C@H]6[C@H](OC)[C@@H]5[C@@]5(C[C@@H]6OC)OCO[C@@]5(C(=O)[C@H]23)[C@@H]14` [PACININE]: above 20 µM, above 20 µM, above 20 µM and above 20 µM.
In the case of `CCN1C[C@]2(C)CC[C@H](OC)[C@@]34[C@@H]5C[C@H]6[C@H](OC)[C@@H]5[C@@]5(C[C@@H]6OC)OCO[C@@]5([C@@H](OC(=O)c5ccc(C(F)(F)F)nc5)[C@H]23)[C@@H]14`, the EC50 in the experiment on A549 is above 20 µM; with KB [1], 18.7 µM; in the experiment with KB [3], above 20 µM; with DU-145 it was above 20 µM.
In the case of `CCN1C[C@]2(C)CC[C@H](OC)[C@@]34C1[C@@]1(OCO[C@@]15C[C@H](OC)[C@H]1C[C@@H]3[C@@H]5[C@H]1OC)[C@@H](OC(=O)c1ccc(F)cc1)[C@H]24` (single isomer, unassigned), the EC50 with A549 was above 20 µM; in the experiment with KB [1], 15 µM; with KB [3], above 20 µM; in the experiment on DU-145, 15.6 µM.
For `CCN1C[C@]2(C)CC[C@H](OC)[C@@]34[C@@H]5C[C@H]6[C@H](OC)[C@@H]5[C@](O)(C[C@@H]6OC)[C@](O)([C@@H](OC(=O)c5cccc(C(F)(F)F)c5)[C@H]23)[C@@H]14`, the EC50 in the experiment on A549, in the experiment on KB [1], with KB [3] and with DU-145 was above 20 µM throughout.
Consider `CCN1C[C@]2(C)CC[C@H](OC)[C@@]34[C@@H]5C[C@H]6[C@H](OC)[C@@H]5[C@](O)(C[C@@H]6OC)[C@](O)([C@@H](O)[C@H]23)[C@@H]14`, for which the half-maximal effective concentration (EC50) in the experiment with A549, in the experiment with KB [1], in the experiment with KB [3] and in the experiment with DU-145 was above 20 µM throughout.
Take `CCN1C(=O)[C@]2(C)CC[C@H](OC)[C@@]34[C@@H]5C[C@H]6[C@H](OC)[C@@H]5[C@@]5(C[C@@H]6OC)OCO[C@@]5([C@@H](O)[C@@H]32)[C@@H]14`: the EC50 in the experiment on A549, in the experiment on KB [1], in the experiment on KB [3] and in the experiment on DU-145 was above 20 µM in each case.
Turning to `CCN1C[C@]2(C)CC[C@H](OC)[C@@]34C1[C@@]1(OCO[C@@]15C[C@H](OC)[C@H]1C[C@@H]3[C@@H]5[C@H]1O)[C@@H](O)[C@H]24` [DELPHELINE], the EC50 in the experiment on A549, in the experiment on KB [1], in the experiment with KB [3] and in the experiment with DU-145 was above 20 µM in each case.
With `CCN1C[C@]2(C)CC[C@H](OC)[C@@]34[C@@H]5C[C@H]6[C@H](OC)[C@@H]5[C@@]5(C[C@@H]6OC)OCO[C@@]5([C@@H](OC(=O)/C=C/c5cccc(C(F)(F)F)c5)[C@H]23)[C@@H]14`, the EC50 was 10.2 µM in the experiment on A549, 9.1 µM with KB [1], above 20 µM in the experiment with KB [3] and 15.1 µM in the experiment on DU-145. For the same compound, the “Ratio EC50” value with KB [2] is recorded as above 2.31.
Take `CCN1C[C@]2(C)CC[C@H](OC)[C@@]34C1[C@@]1(OCO[C@@]15C[C@H](OC)[C@H]1C[C@@H]3[C@@H]5[C@H]1OC)[C@@H](OC(=O)c1ccc(C(=O)OC)cc1)[C@H]24` (single isomer, unassigned): the concentration for a half-maximal effect (EC50) in the experiment on A549, with KB [1], in the experiment with KB [3] and with DU-145 was above 20 µM throughout.
Consider `CCN1C[C@]2(C)CC[C@H](OC)[C@@]34[C@@H]5C[C@H]6[C@H](OC)[C@@H]5[C@@]5(C[C@@H]6OC)OCO[C@@]5([C@@H](OC(=O)c5cccc(C(F)(F)F)c5)[C@H]23)[C@@H]14`, for which the 50% effective concentration (EC50) in the experiment with A549 is above 20 µM; in the experiment with KB [1], 11.9 µM; with KB [3] it was 14.9 µM; with DU-145, 12.6 µM. The “Ratio EC50” value in the experiment on KB [2] is given as 1.25.
On to `CCN1C[C@]2(C)CC[C@H](OC)[C@@]34[C@@H]5C[C@H]6[C@H](OC)[C@@H]5[C@@]5(C[C@@H]6OC)OCO[C@@]5([C@@H](OC(=O)c5ccc(OCc6ccccc6)cc5)[C@H]23)[C@@H]14`, for which the EC50 in the experiment with A549 came out at 14.1 µM; with KB [1] it was 4.22 µM; in the experiment with KB [3], 6.76 µM; with DU-145 it was 13.2 µM. Moreover, the “Ratio EC50” value with KB [2] worked out at 1.6.
As for `CCN1C[C@]2(C)CC[C@H](OC)[C@@]34C1[C@@]1(OCO[C@@]15C[C@H](OC)[C@H]1C[C@@H]3[C@@H]5[C@H]1OC)[C@@H](OC(=O)c1ccc([N+](=O)[O-])cc1)[C@H]24` (single isomer, unassigned), the concentration giving a half-maximal response (EC50) is above 20 µM with A549, 17.7 µM in the experiment on KB [1], above 20 µM in the experiment with KB [3] and 17.2 µM with DU-145.

For the origin of these results see ChEMBL document CHEMBL1933003, “Cytotoxic esterified diterpenoid alkaloid derivatives with increased selectivity against a drug-resistant cancer cell line” (Bioorg Med Chem Lett, 2012).
